Measurements: patent US20100144712A1 (priority 2007, published 2010)
Converted amounts (≈) assume the structure as drawn.

How the values were obtained:
Assay type in all cases: cell-based
[1] = test system: Aspergillus terreus ATCC 28301; assay: In vitro antifungal activity (MIC80), Aspergillus terreus ATCC 28301; conditions: Table 3, ATCC 28301
Method: (§1) In vitro antifungal activities of the inventive antifungal compounds were evaluated using test strains including Candida albican (ATCC 90873, 204276, 62342, 64124, 64550, 96901, MYA-573, MYA-574, MYA-575, MYA-576, MYA-1003) and Aspergillus fumigatus (ATCC 16424). Test samples and positive control samples were prepared by dissolving the inventive compounds and comparative compounds, i.e., amphotericin B, fluconazole and itraconazole, in DMSO, respectively, and each successively diluted with medium to obtain test and positive control solutions having test compound concentrations of 0.125 μg/ml to a maximum concentration not generating turbidity. Minimal inhibitory concentration (MIC80) of each compound was determined as the lowest concentration of the test compounds required to reduce growth by 80% relative to a control strain not treated.
(§2) 3) Preparation of test samples: the inventive compounds and comparative compounds were each diluted with DMSO to obtain 1 to 2 ml of a test sample in a concentration of 100-folds of the determining maximum concentration (256 μg/ml).
(§3) The test samples were each successively diluted with RPMI 1640 to obtain test solutions having concentrations of […] in a 12×75 mm sterilized disposable culture tube. The final concentration of DMSO was adjusted to […] (v/v).
(§4) Candida albican strains were each subcultured in Sabourad Dextrose Agar, YM Agar or Potato Dextrose Agar medium at 35° C. for 2˜3 days. In the case of yeasts, a single colony was taken from prominent colonies and suspended in 0.85% sterile physiological saline solution and the turbidity of the suspension was adjusted to 80˜82% at 530 nm, and then diluted 50-fold with RPMI 1640 medium to 1.0×10^3˜5.0×10^3 CFU/ml. The turbidity of fungi was adjusted to 80˜82% and the suspension was diluted 50-fold to […]. Aspergillus fumigatus strains were subcultured in Malt Extract Agar for 7˜10 days, and a single colony was taken from prominent colonies and suspended in 0.85% sterile physiological saline solution and the suspension was adjusted to 0.108 at 530 nm, and then diluted 1000-fold with RPMI 1640 medium to 0.4×10^2˜5×10^4 CFU/ml. The turbidity of fungi was adjusted to 80˜82% and the suspension was diluted 50-fold to 0.4102˜0.5104 CFU/ml.
(§5) The strain solutions thus obtained were each seeded into a sterilized 96-well microplate, 0.1 ml of each test solution were added thereto, and […] of alamarblue was treated to each well (Biosource, #DAL1100). This procedure was repeated 2 times.
(§6) Minimal inhibitory concentration (MIC80) of each compound was determined as the lowest concentration of the test compounds required to reduce growth by 80% relative to a control strain not treated.
(§7) MIC80 of each of the compounds of which antifungal activities can be confirmed by Table 2 was determined using other test strains, i.e., Aspergillus fumigatus ATCC 16424 and MYA-1163, Aspergillus terreus ATCC 28301, Aspergillus flavus ATCC MYA-1004, and Aspergillus niger ATCC 9142.

[2] = test system: Candida albican ATCC 64550; assay: In vitro antifungal activity (MIC80), Candida albican ATCC 64550; conditions: Table 2, 64550; for MIC80: Candida, ATCC64550, read-out: Minimal inhibitory concentration (MIC80)
Outline: (§8)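 Broth dilution in RPMI 1640 with 2% (v/v) final DMSO, test range 0.25 to 256 […]. Yeast inoculum 1.0×10^3–5.0×10^3 CFU/ml, growth read with alamarBlue, run twice. MIC80 is the lowest concentration giving 80% growth reduction against untreated control.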

[3] = test system: Aspergillus niger ATCC 9142; assay: In vitro antifungal activity (MIC80), Aspergillus niger ATCC 9142; conditions: Table 3, ATCC 9142
Method: as §1, §2, §3, §4, §5, §6, §7

[4] = test system: Candida albican ATCC 96901; assay: In vitro antifungal activity (MIC80), Candida albican ATCC 96901; conditions: Table 2, ATCC 96901; for MIC80: Candida, ATCC96901, read-out: Minimal inhibitory concentration (MIC80)
Outline: as §8

[5] = test system: Candida albican ATCC MYA-574; assay: In vitro antifungal activity (MIC80), Candida albican ATCC MYA-574; conditions: Table 2, MYA 574; for MIC80: Candida, read-out: Minimal inhibitory concentration (MIC80)
Outline: as §8

[6] = test system: Candida albican ATCC MYA-575; assay: In vitro antifungal activity (MIC80), Candida albican ATCC MYA-575; conditions: Table 2, MYA 575; for MIC80: Candida, read-out: Minimal inhibitory concentration (MIC80)
Outline: as §8

[7] = test system: Candida albican ATCC 62342; assay: In vitro antifungal activity (MIC80), Candida albican ATCC 62342; conditions: Table 2, 62342; for MIC80: Candida, ATCC62342, read-out: Minimal inhibitory concentration (MIC80)
Outline: as §8

[8] = test system: Candida albican ATCC MYA-1003; assay: In vitro antifungal activity (MIC80), Candida albican ATCC MYA-1003; conditions: Table 2, MYA 1003; for MIC80: Candida, read-out: Minimal inhibitory concentration (MIC80)
Outline: as §8

[9] = test system: Aspergillus fumigatus (ATCC 16424); assay: In vitro antifungal activity (MIC80), Aspergillus fumigatus ATCC 16424; conditions: for MIC80: Aspergillus fumigatus, ATCC16424, Table 2, ATCC 16424, read-out: Minimal inhibitory concentration (MIC80)
Outline: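 Broth dilution in RPMI 1640 with 2% (v/v) final DMSO; A. fumigatus inoculum from Malt Extract Agar subculture diluted 1000-fold to 0.4×10^2˜5×10^4 CFU/ml, alamarblue added, repeated 2 times. MIC80 is lowest concentration reducing growth 80% versus untreated control.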

[10] = test system: Candida albican ATCC 90873; assay: In vitro antifungal activity (MIC80), Candida albican ATCC 90873; conditions: Table 2, ATCC 90873; for MIC80: Candida, ATCC90873, read-out: Minimal inhibitory concentration (MIC80)
Outline: as §8

[11] = test system: Candida albican ATCC MYA-576; assay: In vitro antifungal activity (MIC80), Candida albican ATCC MYA-576; conditions: Table 2, MYA 576; for MIC80: Candida, read-out: Minimal inhibitory concentration (MIC80)
Outline: as §8

[12] = test system: Aspergillus fumigatus MYA-1163; assay: In vitro antifungal activity (MIC80), Aspergillus fumigatus MYA-1163; conditions: Table 3, MYA-1163
Method: as §1, §2, §3, §4, §5, §6, §7

[13] = test system: Candida albican ATCC MYA-573; assay: In vitro antifungal activity (MIC80), Candida albican ATCC MYA-573; conditions: Table 2, MYA 573; for MIC80: Candida, read-out: Minimal inhibitory concentration (MIC80)
Outline: as §8

[14] = test system: Aspergillus flavus ATCC MYA-1004; assay: In vitro antifungal activity (MIC80), Aspergillus flavus ATCC MYA-1004; conditions: Table 3, MYA-1004
Method: as §1, §2, §3, §4, §5, §6, §7

[15] = test system: Candida albican ATCC 64124; assay: In vitro antifungal activity (MIC80), Candida albican ATCC 64124; conditions: Table 2, 64124; for MIC80: Candida, ATCC64124, read-out: Minimal inhibitory concentration (MIC80)
Outline: as §8

[16] = test system: Candida albican ATCC 204276; assay: In vitro antifungal activity (MIC80), Candida albican ATCC 204276; conditions: ATCC204276, Table 2, 204276, read-out: Minimal inhibitory concentration (MIC80)
Method: as §1
1) Test strain: Candida albican ATCC 90873, 204276, 62342, 64124, 64550, 96901, MYA-573, MYA-574, MYA-575, MYA-576, MYA-1003, and Aspergillus fumigatus ATCC 16424 were commercially obtained from The American Type Culture Collection (ATCC) and subcultured in CHEMON Co. Ltd. (amphotericin B was commercially purchased from Sigma, and fluconazole and itraconazole were prepared according to methods described in British Patent No. 2,099,818; and U.S. Pat. No. 4,267,179, respectively).
2) Medium and culture condition: Candida albican was cultured in Sabourad Dextrose Agar, YM Agar or Potato Dextrose Agar according to ATCC information at a temperature of 37° C., 35° C., 30° C. or 25° C. Aspergillus fumigatus was cultured in Malt Extract Agar or Potato Dextrose Agar at a temperature ranging from 24 to 27° C.
as §2, §3
5) Preparation of strain solution and inoculation
as §4, §5, §6

| SMILES | MIC80 [2] [µg/mL] | MIC80 [4] [µg/mL] | MIC80 [5] [µg/mL] | MIC80 [6] [µg/mL] | MIC80 [7] [µg/mL] | MIC80 [8] [µg/mL] | MIC80 [9] [µg/mL] | MIC80 [10] [µg/mL] | MIC80 [11] [µg/mL] | MIC80 [13] [µg/mL] | MIC80 [16] [µg/mL] | MIC80 [15] [µg/mL] | other results |
| --- | --- | --- | --- | --- | --- | --- | --- | --- | --- | --- | --- | --- | --- |
| C[C@@H]1[C@H](O)[C@@H](C)/C=C/C=C/C=C/C=C/C=C/C=C/C=C/[C@H](O[C@@H]2O[C@H](C)[C@@H](O)[C@H](N)[C@@H]2O)C[C@@H]2O[C@](O)(C[C@@H](O)C[C@@H](O)[C@H](O)CC[C@@H](O)C[C@@H](O)CC(=O)O[C@H]1C)C[C@H](O)[C@H]2C(=O)O [A, amphotericin B, reference compound] |  |  |  |  |  |  |  |  |  |  |  |  | Minimal inhibitory concentration (MIC80) [1]: 4 µg/mL (≈ 4.33 µM); Minimal inhibitory concentration (MIC80) [2]: 0.5 µg/mL (≈ 0.541 µM); Minimal inhibitory concentration (MIC80) [3]: 0.5 µg/mL (≈ 0.541 µM); Minimal inhibitory concentration (MIC80) [4]: 0.25 µg/mL (≈ 0.271 µM); Minimal inhibitory concentration (MIC80) [5]: 0.25 µg/mL (≈ 0.271 µM); Minimal inhibitory concentration (MIC80) [6]: 0.5 µg/mL (≈ 0.541 µM); Minimal inhibitory concentration (MIC80) [7]: 0.5 µg/mL (≈ 0.541 µM); Minimal inhibitory concentration (MIC80) [8]: 0.5 µg/mL (≈ 0.541 µM); Minimal inhibitory concentration (MIC80) ([9]; Table 2, ATCC 16424): 1 to 2 µg/mL; Minimal inhibitory concentration (MIC80) ([9]; Table 3, ATCC 16424): 0.5 µg/mL (≈ 0.541 µM); Minimal inhibitory concentration (MIC80) [10]: 1 to 2 µg/mL; Minimal inhibitory concentration (MIC80) [11]: 0.5 µg/mL (≈ 0.541 µM); Minimal inhibitory concentration (MIC80) [12]: 2 µg/mL (≈ 2.16 µM); Minimal inhibitory concentration (MIC80) [13]: 0.5 µg/mL (≈ 0.541 µM); Minimal inhibitory concentration (MIC80) [14]: 4 µg/mL (≈ 4.33 µM); Minimal inhibitory concentration (MIC80) [15]: 0.5 µg/mL (≈ 0.541 µM) |
| C[C@@H](N1CCN(C(=O)c2nc(-c3ccc(F)cc3)ns2)CC1)[C@](O)(Cn1cncn1)c1ccc(F)cc1F [Example 52, (3-(4-fluorophenyl)-1,2,4-thiadiazol-5-yl)(4-((2R,3R)-3-(2,4-difluorophenyl)-3-hydroxy-4-(1H-1,2,4-triazol-1-yl)butan-2-yl)piperazin-1-yl)methanone] | 4 (≈ 7.36 µM) | 32 (≈ 58.9 µM) | > 128 | > 128 | 4 (≈ 7.36 µM) | > 128 | 1 (≈ 1.84 µM) | 0.125 (≈ 0.23 µM) | 0.125 (≈ 0.23 µM) | 4 (≈ 7.36 µM) | 0.125 (≈ 0.23 µM) | > 128 |  |
| CC(N1CCN(C(=O)c2cn3c(C(=O)c4ccccc4)cnc3s2)CC1)C(O)(Cn1cncn1)c1ccc(F)cc1F [Example 55, (4-((2R,3R)-3-(2,4-difluorophenyl)-3-hydroxy-4-(1H-1,2,4-triazol-1-yl)butan-2-yl)piperazin-1-yl)(5-benzoyl-imidazo[2,1,-b]-thiazol-2-yl)methanone] | 4 (≈ 6.76 µM) | 8 (≈ 13.5 µM) | 8 (≈ 13.5 µM) | 8 (≈ 13.5 µM) | 0.5 (≈ 0.845 µM) | > 128 | 1 (≈ 1.69 µM) | 0.125 (≈ 0.211 µM) | 0.125 (≈ 0.211 µM) | 1 (≈ 1.69 µM) | 0.125 (≈ 0.211 µM) | 16 (≈ 27 µM) |  |
| Cc1ccc(C(=O)c2cnc3sc(C(=O)N4CCN([C@H](C)[C@](O)(Cn5cncn5)c5ccc(F)cc5F)CC4)cn23)cc1 [Example 56, (4-((2R,3R)-3-(2,4-difluorophenyl)-3-hydroxy-4-(1H-1,2,4-triazol-1-yl)butan-2-yl)piperazin-1-yl)(5-(4-methylbenzoyl)-imidazo[2,1-b]-thiazol-2-yl)methanone] | 2 (≈ 3.3 µM) | 8 (≈ 13.2 µM) | 4 (≈ 6.6 µM) | 4 (≈ 6.6 µM) | 0.5 (≈ 0.826 µM) | > 128 | 1 (≈ 1.65 µM) | 0.25 (≈ 0.413 µM) | 0.125 (≈ 0.206 µM) | 1 (≈ 1.65 µM) | 0.25 (≈ 0.413 µM) | 8 (≈ 13.2 µM) |  |
| COc1ccc(C(=O)c2cnc3sc(C(=O)N4CCN(C(C)C(O)(Cn5cncn5)c5ccc(F)cc5F)CC4)cn23)cc1 (stereo not shown) [Example 57] | 4 (≈ 6.43 µM) | 8 (≈ 12.9 µM) | 8 (≈ 12.9 µM) | 8 (≈ 12.9 µM) | 0.5 (≈ 0.804 µM) | > 128 | 0.5 (≈ 0.804 µM) | 0.125 (≈ 0.201 µM) | 0.125 (≈ 0.201 µM) | 1 (≈ 1.61 µM) | 0.125 (≈ 0.201 µM) | 8 (≈ 12.9 µM) |  |
